The values below come from patent US9447114B2, “Thieno- and furo[2,3-d]pyrimidine-2,4[1H,3H]-dione derivatives” (Hydra Biosciences, Inc., priority 2014, dated 2016).

As usually defined, the IC50 is the concentration that inhibits the measured activity by half.

Assay [1] addresses T1, TRPC5 channel (Homo sapiens (Human), UniProt Q9UL62). Description: High throughput screening assay: intracellular Ca2+ rise, Fluo4 cell-based fluorescence. The settings on record: HEK293/TREx cells inducibly expressing TRPC5, high-Ca2+ Ringer, 14 mM Ca2+ final, triplicate, 0.027-20 μM. From the text: The assay depended on detection of the rise in intracellular Ca2+ concentration ([Ca2+]i) following channel activation in cells inducibly expressing the TRPC5 channel. Ca2+ rise was quantified with the use of fluorescent Ca2+ indicators that were loaded into cells and thereafter indicated the [Ca2+]i Ca2+ influx followed activation of the TRPC5 channel. Compounds inhibiting the [Ca2+]i rise were considered hits for further investigation.
The commercially available HEK293/TREx line (Invitrogen) was stably transfected with a TRPC5 construct and screened by conventional calcium imaging to find clones with TRPC5 expression following stimulation with 1 μg/ml tetracycline. These cells were maintained in the growth medium recommended by the manufacturer supplemented with 100 μg/ml hygromycin to promote retention of the TRPC5 construct. After growing to near confluency, cells were plated at a density of ˜35,000 cells/well in 384 well CellBind plates (Corning) in the presence of 1 μg/ml tetracycline, and allowed to grow for 20-30 hrs. A nearly confluent monolayer resulted. Cells were then loaded with Ca2+ dye: Fura-2/AM or Fluo4/AM was added to the wells to a final concentration of 4 μM or 0.5 μM, respectively, and incubated for 80 min or 60 min, respectively, at room temperature. Supernatant was then removed from the cells by inverting plates with a sharp flick, and 25 μl Hank's Balanced Salt Solution (HBSS; 0.185 g/l D-glucose, 0.9767 g/l MgS04 (anhydrous), 0.4 g/l KCl, 0.06 g/l KH2PO4 (anhydrous), 0.35 g/l NaHCO3, 8.0 g/l NaCl, and 0.04788 g/l Na2HPO4 (anhydrous); pH 7.4) was then added to each well. Following ˜0.5 hour for recovery from loading, cells were assayed using the Hamamatsu FDSS 6000 system, which permitted illumination alternately at 340 nm and 380 nm for Fura-2 experiments, or at 485 nm for Fluo4 experiments. Frames were acquired at a rate of 0.2 Hz. During the assay, the plates were continuously vortexed, with pipette mixing of wells following addition of each reagent. For the screening assay, 26 μl of a diluted compound stock (at 50 μM) was added to each well for 2 minutes following the collection of a short (4 frame) baseline. 13 μl 62 mM high-Ca2+Ringer solution (4.17 ml of normal ringer (with 2 mM Ca2+) plus 5.83 ml of isotonic calcium ringer (105 mM Ca2+; in this ringer all sodium has been replaced with calcium)) was then added to each well, achieving a final concentration of 14 mM Ca2+ and 10 μM test compound. Data was collected for ˜3 minutes following addition of high Ca2+Ringer, where the fluorescent intensity (for Fluo4) and the F340/F380 ratio (for Fura-2) were proportional to the [Ca2+]i Negative controls consisted of HEK293/TREx TRPC5 cells exposed to high Ca2+ solution, but no compound. Positive control conditions consisted of addition of 2-APB, a promiscuous blocker of TRPC5 and other channels, to columns 23 and 24 of the plates, to a final concentration of 200 μM. These controls defined a screening window, and “hits” were defined as those compounds inhibiting the fluorescence response by at least 40%. IC50 values were determined for compounds defined as “hits.” The Fluo4 cell-based fluorescence assay was used to determine the intracellular Ca2+ concentration in the presence of varying drug concentration. Final concentrations of compounds tested were 20 μM, 6.667 μM, 2.222 μM, 0.741 μM, 0.247 μM, 0.082 μM, and 0.027 μM. Compounds were tested in triplicate at all concentrations. Standard software was used to fit IC50 curves.
Additionally or alternatively, efficacy can be represented as % inhibition in the presence (of a given concentration of compound) versus the absence of compound or in comparison to a control compound. For example, efficacy can be represented as % inhibition of ion flux in the presence versus the absence of compound.

The target of assay [2] is T1, TRPC5 channel. Description: Whole-cell patch clamp of TRPC5 current. The settings on record: TRPC5-expressing HEK293 TREx cells, current activated by 80 μM LaCl3 and 1.4 μM free Ca2+ in pipette, IC50 estimated. In kind it is cell-based. From the text:
Patch clamp experiments permit the detection of currents through the TRPC5 channel in the cell line described above. In normal whole-cell patch clamp recordings, a glass electrode is brought into contact with a single cell and a high-resistance (gigaohm) seal is established with the cell membrane. The membrane is then ruptured to achieve the whole-cell configuration, permitting control of the voltage of the cell membrane and measurement of currents flowing across the membrane using the amplifier attached to the electrode and resulting in the replacement of cytoplasm with the pipette solution. A perfusion system permits control of the extracellular solution, including the addition of blockers and activators of the current. The current can be activated by including 1.4 μM free Ca^2+ in the pipette (intracellular) solution, and 80 μM LaCl3 in the extracellular solution.
TRPC5 cells were induced 20-48 hours, removed from growth plates, and replated at low density (to attain good single-cell physical separation) on glass coverslips for measurement. In some cases, cells were grown in low density overnight on glass coverslips. Patch clamp recordings were made in the whole-cell mode with a holding potential of −40 mV. Every 5 seconds, a voltage ramp was applied from −120 to +100 mV, 400 ms in duration. Currents elicited were quantified at −80 mV and +80 mV. The internal solution consisted of 140 mM cesium aspartate, 10 mM HEDTA, 2 mM CaCl2, 2.27 mM MgCl2 and 10 mM HEPES, pH 7.2, with 1,400 nM calculated free Ca^2+. The external solution consisted of 150 mM NaCl, 4.5 mM KCl, 1 mM MgCl2, 2 mM CaCl2 10 mM HEPES, 10 mM glucose, 1 mM EGTA, pH 7.4. Upon addition of LaCl3, TRPC5 current was induced only in TRPC5-expressing cells and not in parental HEK293 TREx cells. Removal of the LaCl3 stimulus causes most of the current to go away. Potential blockers were tested for ability to block both inward and outward currents in the continued presence of LaCl3.
IC50 of a compound of Formula (I) was estimated by testing the compound at 5 μM and 500 nM. […] IC50 for a compound of Formula (I) between 500 nM and 5 μM was similarly estimated.

T1 sequence (Q9UL62 whole entry): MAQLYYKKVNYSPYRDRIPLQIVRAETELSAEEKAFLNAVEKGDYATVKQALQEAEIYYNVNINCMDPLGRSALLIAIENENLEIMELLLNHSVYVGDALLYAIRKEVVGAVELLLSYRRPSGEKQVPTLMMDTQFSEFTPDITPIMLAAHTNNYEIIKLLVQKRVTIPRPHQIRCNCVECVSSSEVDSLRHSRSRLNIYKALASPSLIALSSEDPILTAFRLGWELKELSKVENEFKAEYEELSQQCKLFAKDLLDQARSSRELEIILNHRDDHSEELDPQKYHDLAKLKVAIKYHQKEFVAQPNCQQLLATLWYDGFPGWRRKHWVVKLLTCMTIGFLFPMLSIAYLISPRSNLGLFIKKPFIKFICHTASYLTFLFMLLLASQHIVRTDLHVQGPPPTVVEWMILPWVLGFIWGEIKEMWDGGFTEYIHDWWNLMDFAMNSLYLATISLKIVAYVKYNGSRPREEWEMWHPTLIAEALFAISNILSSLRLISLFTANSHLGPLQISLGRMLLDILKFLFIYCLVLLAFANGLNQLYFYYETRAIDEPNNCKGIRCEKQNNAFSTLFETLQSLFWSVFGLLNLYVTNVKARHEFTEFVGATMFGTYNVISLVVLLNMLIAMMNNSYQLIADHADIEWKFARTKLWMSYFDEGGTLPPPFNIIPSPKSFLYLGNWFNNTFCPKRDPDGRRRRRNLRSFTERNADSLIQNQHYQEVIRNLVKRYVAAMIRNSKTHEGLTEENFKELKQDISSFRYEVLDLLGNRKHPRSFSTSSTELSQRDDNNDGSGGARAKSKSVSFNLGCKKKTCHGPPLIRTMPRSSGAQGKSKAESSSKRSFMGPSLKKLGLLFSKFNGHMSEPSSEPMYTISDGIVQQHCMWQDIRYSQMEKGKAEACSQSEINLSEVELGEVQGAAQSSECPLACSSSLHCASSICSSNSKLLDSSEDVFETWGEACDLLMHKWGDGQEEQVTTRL

`Cn1c(=O)n(CCCO)c(=O)c2c(Cc3ccc(Cl)cc3)c(-c3cccc(OC(F)(F)F)c3)sc21` [Compound 26, 5-(4-chlorobenzyl)-3-(3-hydroxypropyl)-1-methyl-6-(3-(trifluoromethoxy)phenyl)thieno[2,3-d]pyrimidine-2,4(1H,3H)-dione]: the IC50 against TRPC5 channel [1] is 1.91 nM; on TRPC5 channel [2] it was less than 1 nM.
As for `Cn1c(=O)n(CCCO)c(=O)c2c(Cc3ccc(Cl)cc3)c(-c3cccc(Cl)c3)oc21` [Compound 27, 5-(4-chlorobenzyl)-6-(3-chlorophenyl)-3-(3-hydroxypropyl)-1-methylfuro[2,3-d]pyrimidine-2,4(1H,3H)-dione], the IC50 on TRPC5 channel [1] was 134 nM; on TRPC5 channel [2], less than 1 nM.
